According to patent US8404790B2, “Aqueous emulsion polymerization process for producing fluoropolymers” (3M Innovative Properties Company, priority 2005, dated 2013):

Experiment: Determination of bio-accumulation: urinary clearance pharmacokinetic study in rats
Conditions: oral gavage
Experimental: The fluorinated surfactants were evaluated for urinary clearance using a pharmacokinetic study in rats. The goal was to measure the total amount of parent compound eliminated via urinary output and estimate the rate of elimination.
The study utilized male Sprague Dawley rats, 6 to 8 weeks of age, and approximately 200 to 250 g body weight at study onset. The test compounds of table 2 were administered at a dose of 73 micromoles per kg body weight in rats (N=3 animals per tested compound). All test compounds were prepared in sterile deionized water and given to rats via oral gavage. After test compounds administration, the rats were housed individually in metabolism cages for urine collection: 0 to 6 hours, 6 to 24 hours, 24 to 48 hours and 72 to 96 hours. Animals were observed throughout the study for clinical signs of toxicity. Gross necropsy was performed at the termination of each study (96 hours post-dose) with sera and liver samples being retained from each animal
The concentration of the parent compound or metabolites thereof were quantitatively measured via fluorine NMR on each urine sample for each animal at each time point based on internally added standards.

SMILES: O=C(O)C(F)(F)OC(F)(F)OC(F)(F)OC(F)(F)OC(F)(F)F [Compound 1, perfluoro-3,5,7,9-tetraoxadecanoic acid (CF3—(OCF2)4—COOH)]
- T½ (renal elimination half-life) (73 micromoles per kg body weight, urine, fluorine NMR, exponential least squares curve fitting): 15 h
- % Recovery (96 h) (73 micromoles per kg, recovery of administered amount in urine after 96 h): 50%
